The values that follow come from patent US6552061B1, “Amino acid derivatives and anti-inflammatory agents” (Ajinomoto Co., Inc., priority 1998, dated 2003).

Format in all cases: cell-based
In one experiment the test system is collagenase. Kind of experiment: Test for an Activity of Inhibiting Collagenase Expression (MMP-1 ELISA, UVA-irradiated human dermal fibroblasts). The conditions noted are these: Fibroblast, light or radiation study, 24 h, read-out: inhibitory rate (%) of collagenase expression. As to the method:
Test for an Activity of Inhibiting Collagenase Expression
The test compound was added to human dermal fibroblasts which had become confluent in a culture plate. Eighteen hours later, the culture solution was replaced with a phenol red-free medium. The cells were subjected to UV irradiation (UVA; 20 J/cm^2) using Dermaray M-DMR-80 (supplied by Toshiba Iryo Yohin KK). After 24 hours passed, the culture solution was recovered, and the collagenase concentration in the culture solution was measured using MMP-1α·ELISA System (supplied by Amersham Corp.). The rate of inhibition of collagenase expression on the test compound was calculated using formula (VI).
Rate (%) of inhibition of collagenase expression={1−(B4−B6)/(B5−B6)}×100 (VI)
B4: collagenase concentration in the addition of the test compound
B5: collagenase concentration in the non-addition of the test compound
B6: collagenase concentration when the test compound was not added, nor was UV irradiation conducted
In general terms: In an ELISA, binding on a coated surface is turned into a signal by an enzyme label.

In the next experiment the test system is AP-1. Kind of experiment: Test for an Activity of Inhibiting AP-1 Activation (gel shift assay, UVA-irradiated human dermal fibroblasts). The conditions noted are these: AP1, light or radiation study, read-out: inhibitory rate (%) of AP-1 activation. As to the method:
Test for an Activity of Inhibiting AP-1 Activation
(§1) The test compound was added to human dermal fibroblasts which had become confluent in a culture plate. Eighteen hours later, the culture solution was replaced with a phenol red-free medium. The cells were subjected to UV irradiation (UVA: 20 J/cm^2) using Dermaray M-DMR-80 (supplied by Toshiba Iryo Yohin KK). After from 4 to 5 hours passed, the cells were recovered, and the nucleoproteins were extracted in a usual manner. With respect to the resulting nucleoproteins, AP-1 activated by gel shift assay was detected. The amount of AP-1 was determined by measuring a radioactivity of an AP-1 band using a bio-imaging analyzer BAS 2000 (supplied by Fuji Photo Film). The rate of inhibition of AP-1 activation on the test compound was calculated using formula (IV).
Rate (%) of inhibition of AP-1 activation={1−(A4−A6)/(A5−A6)}×100 (IV)
A4: radioactivity of an AP-1 band in the addition of the test compound
A5: radioactivity of an AP-1 band in the non-addition of the test compound
A6: radioactivity of an AP-1 band when the test compound was not added, nor was UV irradiation conducted
For orientation: Mobility shift assays separate free from complexed probe on a gel.

The test system of another experiment is IL-1α. Kind of experiment: Test for an Activity of Inhibiting IL-1α Expression (ELISA, UVB-irradiated human epidermal cells). The following applies: light or radiation study, 24 h, read-out: inhibitory rate (%) of IL-1α expression. As to the method:
Test for an Activity of Inhibiting IL-1α Expression
The test compound was added to human epidermal cells which had become confluent in a culture plate. Eighteen hours later, the culture solution was replaced with a phenol red-free medium. The cells were subjected to UV irradiation (UVB: 50 mJ/cm^2) using Dermaray M-DMR-80 (supplied by Toshiba Iryo Yohin KK). After 24 hours passed, the culture solution was recovered, and the IL-1α concentration in the culture solution was measured using IL-1α·ELISA System (supplied by Amersham Corp.). The rate of inhibition of IL-1α expression on the test compound was calculated using formula (V).
Rate (%) of inhibition of IL-1α expression={1−(B1−B3)/(B2−B3)}×100 (V)
B1: IL-1α concentration in the addition of the test compound
B2: IL-1α concentration in the non-addition of the test compound
B3: IL-1α concentration when the test compound was not added, nor was UV irradiation conducted

Another experiment deals with NF-κB. Kind of experiment: Test for an Activity of Inhibiting NF-κB Activation (gel shift assay, UVB-irradiated human epidermal cells). The following applies: light or radiation study, read-out: inhibitory rate (%) of NF-κB activation. As to the method: Test for an Activity of Inhibiting NF-κB Activation
as §1, with “Eighteen” for “The test compound was added to human dermal fibroblasts which had become confluent in a culture plate. Eighteen”, “(UVB: 50 mJ/m^2)using” for “(UVA: 20 J/cm^2) using”, “NF-κB” for “AP-1”, “(III).” for “(IV).”
Rate (%) of inhibition of NF-κB activation={1−(A1−A3)/(A2−A3)}×100 (III)
A1: radioactivity of an NF-κB band in the addition of the test compound
A2: radioactivity of an NF-κB band in the non-addition of the test compound
A3: radioactivity of an NF-κB band when the test compound was not added, nor was UV irradiation conducted

`CCOC(=O)[C@H](CO)NCc1ccccc1O` [N-(2-hydroxybenzyl)-L-serine ethyl ester]: the inhibition at 500 µM in the experiment with collagenase (concentration 0.5 mM) was found to be 30%. The inhibition at 1000 µM came to 73% in the experiment on AP-1 (concentration 1 mM) and 37% in the experiment with NF-κB (concentration 1 mM). In addition, the inhibition at 2000 µM in the experiment on IL-1α (concentration 2 mM) came to 44%; with NF-κB (concentration 2 mM), 56%.

`CCCCCCCCCCCCNC(=O)[C@H](Cc1ccc(O)cc1)NCc1ccccc1O` [N-(2-hydroxybenzyl)-L-tyrosine lauryl amide]: the inhibition at 1 µM in the experiment on collagenase (concentration 1 μM) was determined as 42%. Also, the inhibition at 10 µM in the experiment on collagenase (concentration 10 μM) was determined as 84%; with AP-1 (concentration 10 μM) it was 40%; in the experiment on IL-1α (concentration 10 μM), 56%; in the experiment with NF-κB (concentration 10 μM), 39%. Also, the inhibition at 20 µM in the experiment with AP-1 (concentration 20 μM) was 55%.
